Experimental data: the supplement of paper PMC10307832

Tests used:
Experiment in all cases: relative viability (nuclei count vs DMSO), 5 days (fraction); higher = more cells survive
[1] = compound: O=C(Nc1c[nH]nc1-c1nc2ccc(CN3CCOCC3)cc2[nH]1)NC1CC1 [AT9283] + Cc1nc(Nc2ncc(C(=O)Nc3c(C)cccc3Cl)s2)cc(N2CCN(CCO)CC2)n1 [Dasatinib] (partner 0.075 µM)
How it was run: (§1)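 Lung cancer cell lines were seeded in 1536-well plates and dosed by pin tool the next day, with either a single drug or a fixed anchor-drug dose combined with five library-drug doses (not always all listed) spaced in √10 steps. Five days later, one step fixed the cells and stained their nuclei (final 0.05% Triton X-100, 1% formaldehyde, 1 ug/ml Hoechst), and nuclei were counted on 4× images. Relative viability is the nuclei count in treated wells divided by the count in vehicle wells, and each value is the median of duplicate plates.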

[2] = compound: C#Cc1cccc(Nc2ncnc3cc(OCCOC)c(OCCOC)cc23)c1 [Erlotinib] + COc1cccc2cc(-c3nc([C@H]4CC[C@H](C(=O)O)CC4)n4ncnc(N)c34)[nH]c12 [OSI-027] (partner 0.5 µM)
How it was run: as §1

[3] = compound: O=C(Nc1c[nH]nc1-c1nc2ccc(CN3CCOCC3)cc2[nH]1)NC1CC1 [AT9283] + C[C@]1(O)C[C@@H](c2nc(-c3ccc4ccc(-c5ccccc5)nc4c3)c3c(N)nccn32)C1 [Linsitinib] (partner 1 µM)
How it was run: as §1

[4] = compound: C#Cc1cccc(Nc2ncnc3cc(OCCOC)c(OCCOC)cc23)c1 [Erlotinib] + Cc1nc(NC(=O)N2CCC[C@H]2C(N)=O)sc1-c1ccnc(C(C)(C)C(F)(F)F)c1 [Alpelisib] (partner 2 µM)
How it was run: as §1

[5] = compound: O=C(Nc1c[nH]nc1-c1nc2ccc(CN3CCOCC3)cc2[nH]1)NC1CC1 [AT9283] + CC(C)C[C@H](NC(=O)[C@H](Cc1ccccc1)NC(=O)c1cnccn1)B(O)O [Bortezomib] (partner 0.002 µM)
How it was run: as §1

Row | Cell Line | relative viability ([1]; first compound 0.003 µM) | relative viability ([1]; first compound 0.03 µM) | relative viability ([1]; first compound 0.09487 µM) | relative viability ([1]; first compound 0.3 µM) | relative viability ([2]; first compound 0.02 µM) | relative viability ([2]; first compound 0.2 µM) | relative viability ([2]; first compound 0.6325 µM) | relative viability ([2]; first compound 2 µM) | relative viability ([3]; first compound 0.003 µM) | relative viability ([3]; first compound 0.03 µM) | relative viability ([3]; first compound 0.09487 µM) | relative viability ([3]; first compound 0.3 µM) | relative viability ([4]; first compound 0.02 µM) | relative viability ([4]; first compound 0.2 µM) | relative viability ([4]; first compound 0.6325 µM) | relative viability ([4]; first compound 2 µM) | relative viability ([5]; first compound 0.003 µM) | relative viability ([5]; first compound 0.03 µM) | relative viability ([5]; first compound 0.09487 µM) | relative viability ([5]; first compound 0.3 µM)
1 | NCI-H522 | 0.66 | 0.678 | 0.583 | 0.476 | 0.749 | 0.672 | 0.816 | 0.66 |  |  |  |  |  |  |  |  |  |  |  | 
2 | NCI-H1299 |  |  |  |  |  |  |  |  | 0.888 | 0.705 | 0.402 | 0.256 | 1.07 | 1.03 | 1.1 | 1.03 | 1.07 | 1.02 | 0.437 | 0.395
3 | NCI-H1395 | 0.434 | 0.424 | 0.292 | 0.287 | 0.677 | 0.712 | 0.615 | 0.629 | 1.08 | 0.901 | 0.373 | 0.383 | 1.34 | 1.08 | 1.08 | 1.07 |  |  |  | 
4 | NCI-H1623 | 0.567 | 0.51 | 0.615 | 0.324 | 0.398 | 0.366 | 0.297 | 0.256 |  |  |  |  |  |  |  |  |  |  |  | 
5 | NCI-H1648 |  |  |  |  | 0.251 | 0.283 | 0.246 | 0.298 |  |  |  |  |  |  |  |  |  |  |  | 
6 | NCI-H1650 | 0.347 | 0.301 | 0.216 | 0.171 | 0.533 | 0.515 | 0.472 | 0.33 |  |  |  |  |  |  |  |  | 0.206 | 0.222 | 0.231 | 0.215
7 | NCI-H1703 |  |  |  |  |  |  |  |  | 0.985 | 0.284 | 0.258 | 0.223 | 0.367 | 0.321 | 0.352 | 0.296 | 0.452 | 0.196 | 0.141 | 0.169
8 | NCI-H1793 | 0.405 | 0.39 | 0.256 | 0.138 | 0.281 | 0.225 | 0.235 | 0.156 | 0.941 | 0.859 | 0.339 | 0.209 | 0.747 | 0.549 | 0.516 | 0.579 |  |  |  | 
9 | NCI-H1944 | 0.199 | 0.178 | 0.116 | 0.111 | 0.413 | 0.355 | 0.291 | 0.269 | 1.17 | 0.973 | 0.528 | 0.331 | 0.708 | 0.562 | 0.595 | 0.504 |  |  |  | 
10 | NCI-H2170 | 0.446 | 0.427 | 0.16 | 0.133 | 0.687 | 0.748 | 0.566 | 0.403 |  |  |  |  | 0.895 | 0.745 | 0.578 | 0.308 |  |  |  | 
11 | NCI-H2342 | 0.295 | 0.292 | 0.289 | 0.27 | 0.596 | 0.635 | 0.556 | 0.55 |  |  |  |  |  |  |  |  |  |  |  | 
12 | SK-MES-1 | 0.56 | 0.25 | 0.0729 | 0.0952 | 0.615 | 0.415 | 0.356 | 0.221 | 1.07 | 0.933 | 0.846 | 0.17 | 0.926 | 0.536 | 0.533 | 0.298 |  |  |  | 
13 | SW 900 | 0.652 | 0.533 | 0.438 | 0.385 | 0.584 | 0.598 | 0.642 | 0.374 |  |  |  |  |  |  |  |  |  |  |  | 
